Results on 22 compounds are retold here after patent US6800656B2, “Tricyclic compounds and method of treating herpes virus” (Warner Lambert Company, priority 2000, dated 2004).

A value given as a limit tells only on which side of the number the result lay.

The nature of one data set: in vitro. The format is cell-based. The conditions noted are these: for CC50: African green monkey; for CC50 at 7 days: human. How it is done:
Anti-human cytomegalovirus (HCMV) activity is determined in a yield reduction assay utilizing a recombinant HCMV (RC256) that produces β-gal (Spaete, R. R.; Mocarski, E. S. Proceedings of the National Academy of Sciences USA 84:7213-7217, 1987). Primary human diploid fibroblasts (HFF cells) are infected at an moi of 0.01 with RC256, and serial dilutions of the compound in DMSO are added. The final concentration of DMSO in all wells is 1%. The infection is allowed to proceed for 7 days at which time the β-gal activity in cell lysates is measured. Activity in wells containing compound is compared to control wells and percent inhibition determined.
Cellular toxicity assays: Cellular toxicity is measured in HFF cells. Cells are plated in 96 well plates at 1×10^4 cells/well. Serial dilutions of compounds are added to the wells in DMSO, with the final concentration of DMSO in all wells at 1%, in a total volume of 200 μL. The plates are maintained in a 37° C. incubator for 7 days. 50 μL of a solution of XTT (sodium-3′[1-(phenyl-amino-carbonyl)-3,-tetrazolium]-bis(bis(4-methoxy-6-nitro)-benzene sulfonic acid hydrate) (3×10^−4 mg/ml) is added to each well, and the plates returned to the incubator for 4 hours, after which the A450 (absorbance at wavelength of 450 nm) for each well is measured in a plate reader. (Roehm, N. W., et al J. Immunol. Meth. 142:257-265, 1991). Toxicity is determined by comparison of the OD (optical density) of a well containing compound to the OD of wells containing DMSO only.

In data set [1] the test system is herpes simplex virus 1 (HSV). The data set can be described thus: microbe, parasite or virus in culture. The following applies: for EC50: Human alphaherpesvirus 1, Vero; for TI (EC50/TC50): therapeutic index, HSV-1, Vero cells. The format is cell-based. As for the experimental part:
Vero (African Green Monkey kidney) cells are infected at a multiplicity of infection of 0.01 with the virus, and serial dilutions of the compound in dimethyl sulfoxide (DMSO) are added. The final concentration of DMSO in all wells is 1%. DMSO is added to control wells. The infection is allowed to proceed for 2 days at which time the β-gal activity in cell lysates is measured. Activity in wells containing compound is compared to control wells and percent inhibition determined.

Data set [2] has as its system human cytomegalovirus (HCMV). As to the kind of experiment: microbe, parasite or virus in culture. Type of data set: cell-based. The following applies: Human betaherpesvirus 5, HFF. As for the experimental part: Primary human diploid fibroblasts (HFF cells) are infected at an moi of 0.01 with RC256, and serial dilutions of the compound in DMSO are added. The final concentration of DMSO in all wells is 1%. The infection is allowed to proceed for 7 days at which time the β-gal activity in cell lysates is measured. Activity in wells containing compound is compared to control wells and percent inhibition determined.

The CC50 is the concentration giving 50% cytotoxicity. The EC50 is the concentration that produces a half-maximal response. Consider `c1cnc2c(c1)Oc1cc(NCc3cccc4ccccc34)ccc1S2` [Example 93, Naphthalene-1-ylmethyl-(10-oxa-9-thia-1-aza-anthracen-6-yl)-amine], for which, in “in vitro”, the CC50 was greater than 100000 nM. Also, in data set [1], a half-maximal effect (EC50) was put at 1300 nM and the “TI (EC50/TC50)” value is given as greater than 77.

For `Fc1ccc(CNc2ccc3c(c2)Oc2ccccc2S3)c(F)c1` [Example 208, (2,4-Difluoro-benzyl)-phenoxathiin-3-yl-amine], the CC50 in the data set “in vitro” is greater than 100000 nM. Also, in data set [1], the EC50 stood at 260 nM and the “TI (EC50/TC50)” value is on record as greater than 385.

By melting point is commonly meant the temperature, or range, at which the solid turns liquid. In turn, `c1ccc(Oc2cccc(CNc3ccc4oc5ccccc5c4c3)c2)cc1` returned a melting point of 93 to 94 °C.

The compound `c1ccc2c(c1)CN(c1ccc3oc4ccccc4c3c1)C2` yielded a melting point of 193 to 195 °C.

Compound `c1ccc(Oc2ccc(CNc3ccc4oc5ccccc5c4c3)cc2)cc1` yielded a melting point of 91 to 93 °C.

`CCn1c2ccccc2c2cc(NCc3cccc(F)c3C)ccc21` [Example 217, (9-Ethyl-9H-carbazol-3-yl)-(3-fluoro-2-methyl-benzyl)-amine] showed a CC50 in the data set “in vitro” greater than 100000 nM. Further, in data set [1], the EC50 amounted to 320 nM and the “TI (EC50/TC50)” value is greater than 313.

In turn, `CC(Nc1ccc2oc3ccccc3c2c1)c1ccccc1` (stereo not drawn) displayed a melting point of 94 to 95 °C.

`COc1ccc(CNc2cccc3c2oc2ccccc23)cc1` [Example 150, Dibenzofuran-4-yl-(4-methoxy-benzyl)-amine] displayed a CC50 in “in vitro” greater than 100000 nM. In data set [1], it took 850 nM to reach a half-maximal effect (EC50) and the “TI (EC50/TC50)” value is reported as greater than 118.

For `O=[N+]([O-])c1ccc(CNc2ccc3oc4ccccc4c3c2)cc1` [Example 60, Dibenzofuran-2-yl-(4-nitro-benzyl)-amine], the EC50 in data set [2] is 1300 nM. For the same compound, in “in vitro”, the CC50 was greater than 100000 nM and the CC50 at 7 days is greater than 100000 nM. In addition, in data set [1], the EC50 was 500 nM and the “TI (EC50/TC50)” value is greater than 200.

In turn, `CCCC(Cc1ccccc1)Nc1ccc2oc3ccccc3c2c1` (stereo not drawn) [Example 65, (1-Benzyl-butyl)-dibenzofuran-2-yl-amine] showed an EC50 in data set [2] of 3000 nM. In the data set “in vitro”, this compound registered a CC50 at 7 days greater than 100000 nM.

`Oc1ccccc1CNc1ccc2oc3ccccc3c2c1` had a melting point of 145 to 147 °C.

For `COc1ccc(CNc2ccc3oc4ccc(Cl)cc4c3c2)cc1F` [Example 139, (8-Chloro-dibenzofuran-2-yl)-(3-fluoro-4-methoxy-benzyl)-amine], in “in vitro”, the CC50 was greater than 100000 nM. In data set [1], the EC50 was 400 nM and the “TI (EC50/TC50)” value is greater than 250.

In the case of `Nc1nc(O)c2ncn(COC(CO)CO)c2n1` [Ganciclovir], it took 2600 nM to reach a half-maximal effect in data set [2] (EC50). The compound further gave a CC50 at 7 days in “in vitro” greater than 100000 nM.

`FC(F)(F)Oc1ccc(CNc2ccc3oc4ccccc4c3c2)cc1` returned a melting point of 75 to 77 °C.

On to `Cc1ccccc1CNc1ccc2oc3ccccc3c2c1`, for which the melting point lay within 84 to 85 °C.

As for `COc1cc(CNc2ccc3oc4ccccc4c3c2)cc(OC)c1` [Example 56, Dibenzofuran-2-yl-(3,5-dimethoxy-benzyl)-amine], the melting point was 87 to 88 °C. In the data set “in vitro”, this compound returned a CC50 greater than 100000 nM. In addition, in data set [1], the EC50 came to 700 nM and the “TI (EC50/TC50)” value is on record as greater than 143.

`c1ccc2c(c1)oc1ccc(NCc3ccc4c(c3)OCO4)cc12` showed a melting point of 85 to 86 °C.

Turning to `FC(F)(F)c1ccc(CNc2ccc3oc4ccccc4c3c2)cc1` [Example 57, Dibenzofuran-2-yl-(4-trifluoromethyl-benzyl)-amine], the melting point was 89 to 90 °C. In data set [2], this compound came in with an EC50 of 1700 nM. In the data set “in vitro”, this compound returned a CC50 greater than 100000 nM and a CC50 at 7 days greater than 100000 nM. Besides, in data set [1], a half-maximal effect (EC50) was put at 810 nM and the “TI (EC50/TC50)” value is on record as greater than 124.

For `c1ccc(CNc2ccc3oc4ccccc4c3c2)cc1`, the melting point lay within 81 to 82 °C.

Consider `O=C1c2ccccc2C(=O)N1c1ccc2oc3ccccc3c2c1`, for which the melting point fell in the range of 217 to 218 °C.

`CSc1ccc(CNc2ccc3oc4ccccc4c3c2)cc1` [Example 61, Dibenzofuran-2-yl-(4-methylsulfanyl-benzyl)-amine]: the melting point lay within 103 to 104 °C. The compound further registered an EC50 in data set [2] of 2900 nM. Further, in “in vitro”, the CC50 at 7 days is greater than 100000 nM.

As for `c1ccc2c(c1)oc1ccc(NCc3ccsc3)cc12`, the melting point lay in the range of 62 to 63 °C.
